Patent US20230203523A1, “HPPD INHIBITOR HERBICIDE TOLERANT PLANT” (priority 2021, published 2023)

Experiments:
Type in all cases: in vivo, Sorghum bicolor
[1] = tested on: grain sorghum genotype BV94-4045 (susceptible wild type); experiment: Field phytotoxicity trial, aerial biomass as % of untreated control, wild type sorghum; details: BV94-4045 wild type; for Biomass % Control: field; for phytotoxicity / biomass accumulation (in words): POE, 20 days after herbicide application, 4×
Protocol: (§1) To determine the spectrum of tolerance to different HPPD herbicide site of action (SOA) active ingredients (AI) in a sorghum HPPD tolerant inbred BV10-11924 (ADV-HT2) following methodology was used.
(§2) Two grain sorghum genotypes were evaluated under field conditions with herbicide pre-emergency (PRE) and post-emergency (POE) treatments of 6 active ingredients of HPPD SOA herbicide families for sorghum crop phytotoxicity trials.
(§3) The experiment design was a split-plot design with 2 replicates where: Herbicide treatment was defined as Main plot, and Genotype as split plot. Plot size were 10 square meters each, this is 4 row/plot, 5 meters length and 0.52 meters between rows.
(§4) Both genotypes (Table 1) were sown in the Advanta R&D Station in Venado Tuerto, Argentina using an experimental planter. Wild type BV94-4045 (line used for mutagenesis in example 1) is a maintainer elite inbred line Advanta's proprietary.
(§5) All herbicide treatments (Table 2) were applied same day of sowing date for herbicide PRE treatments, and 15 days after sowing for POE treatments using an experimental sprayer in optimal weather conditions. The herbicides rates were defined as: 1×, 2× and 4×. Along with the herbicides, there were applied specific surfactant when they were recommended by the supplier for each herbicide. In all cases, 1× rate was defined based on the recommended dose in herbicide label. […]
(§6) For Aerial Biomass (Biomass) measurements, all plants from two central rows each plot were harvested by cutting them at ground level and weighted before and after drying at 60° C. for 48 h in order to determine the shoot dry mass reduction of each treatment. All data were standardized using the Aerial Biomass average as the % of Control plots. For the calculation as the percentage of its respective untreated control was used the following function:
(§7) Biomass % Control=(Biomassgh/Biomassg Control)*100
(§8) where “Biomass % Control” is the Aerial Biomass expressed as percent of each genotype in the Control plot without any herbicide application (Table 3); “Biomassgh” is the Aerial Biomass is the mean for each genotype*herbicide treatment combination and “Biomassg Control” is the Aerial Biomass mean for each genotype in the treatment CONTROL (untreated).

[2] = tested on: grain sorghum genotype BV10-11924 (mutant ADV-HT2); experiment: Field phytotoxicity trial, aerial biomass as % of untreated control, mutant ADV-HT2 sorghum; details: for Biomass % Control: field
Protocol: as §1, §2, §3, §4, §5, §6, §7, §8

[3] = tested on: M3 sorghum plants of furrow VT09-8800 (BV94-4045EMS1-256-2, ADV-HT2); experiment: Herbicide spray selection of EMS-mutagenised M3 sorghum progeny; details: sprayed with 33.6 ml active ingredient/ha; six M3 plants of furrow VT09-8800
Protocol: In order to obtain herbicide-tolerant plants, endogamic sorghum (Sorghum bicolor) line BV94-4045 (Advanta proprietary elite line) seeds were treated with an aqueous solution of ethyl methanesulfonate (EMS). Treated seeds were planted and self-pollinated for advancing generation. Eight hundred nighty five M1 plants were selected, and two seeds of each plant were planted in a nursery, thereby obtaining a total of 1790 M2 plants. Pollen from both plants of each pair were collected, and the bulk was used for pollinating both plants of the pair. A bulk of M3 seeds from each pair was obtained from the 895 pollinated M2 pairs of plants. A total of 895 furrows were planted with the M3 progeny. Fifty plants from each M3 furrow were sprayed with 33.6 ml active ingredient /ha of topramezone. […] The genealogy of the resistant plants from the furrows was identified and they were designated BV94-4045EMS1-256-2 (hereinafter referred to as ADV-HT2). Herbicide tolerant M7 mutant plants and seeds selected from the original ADV-HT2 mutant, designated as: Material ID=VT10-11924-1-BK and Inbred Code=BV10-11924, were obtained and deposited with the NCIMB collection with Access No. NCIMB 43919 under the terms of the Budapest Treaty,
Thirty-two thousand pre-germinated sorghum seeds from endogamic line BV94-4045 were dipped into an aqueous solution of 0.05% v/v ethyl methanesulfonate (EMS) for 16 hours. […]

[4] = PRE application (day of sowing), 1X = label recommended rate
[5] = PRE, 1× rate, 20 days after the application
[6] = POE application (15 days after sowing), 1X = label recommended rate
[7] = POE, 20 days after herbicide application, rates 1×, 2×, and 4×

Compound	Biomass % Control [1, 4]	Biomass % Control ([1]; PRE application, 2X label rate)	Biomass % Control ([1]; PRE application, 4X label rate)	Biomass % Control [2, 4]	Biomass % Control ([2]; PRE application, 2X label rate)	Biomass % Control ([2]; PRE application, 4X label rate)	phytotoxicity / biomass accumulation (in words) [2, 5]	plant growth and symptoms after treatment with herbicide (in words) [3]	Biomass % Control [1, 6]	Biomass % Control ([1]; POE application, 2X label rate)	Biomass % Control ([1]; POE application, 4X label rate)	phytotoxicity / biomass accumulation (in words) ([1]; rates 1×, 2×)	Biomass % Control [2, 6]	Biomass % Control ([2]; POE application, 2X label rate)	Biomass % Control ([2]; POE application, 4X label rate)	phytotoxicity / biomass accumulation (in words) [2, 7]	phytotoxicity / biomass accumulation (in words) ([1]; rates 2×)
COCCOCc1nc(C(F)(F)F)ccc1C(=O)C1=C(O)C2CCC(C2)C1=O (stereo not drawn) [BYC, BICYCLOPIRONA]	65%	10%	1%	127%	46%	15%	no significative reduction in biomass accumulation	–	–	–	–	–	–	–	–	–	–
Cc1c(C(=O)c2cnn(C)c2O)ccc(S(C)(=O)=O)c1C1=NOCC1 [TOP, TOPRAMEZONE]	–	–	–	–	–	–	–	normal growth and absence of symptoms	77%	51%	39%	significant reduction in the biomass accumulation	126%	107%	117%	tolerant without phytotoxicity nor reduction in the biomass accumulation	–
CS(=O)(=O)c1cc(C(F)(F)F)ccc1C(=O)c1cnoc1C1CC1 [ISO, ISOXAFLUTOLE]	63%	28%	10%	84%	68%	38%	no significative reduction in biomass accumulation	–	–	–	–	–	–	–	–	–	–
CCn1ncc(C(=O)c2ccc(S(C)(=O)=O)c(OCCOC)c2C)c1OC(C)OC(=O)OC (stereo not drawn) [TOL, TOLPYRALATE]	–	–	–	–	–	–	–	–	76%	60%	64%	significant reduction in the biomass accumulation	117%	92%	127%	tolerant without phytotoxicity nor reduction in the biomass accumulation	–
CS(=O)(=O)c1ccc(C(=O)C2C(=O)CCCC2=O)c([N+](=O)[O-])c1 [MES, MESOTRIONE]	–	–	–	–	–	–	–	–	108%	32%	13%	–	146%	106%	84%	tolerant without phytotoxicity nor reduction in the biomass accumulation	significant reduction in the biomass accumulation
